Results from patent US12187709B2 (Genentech, Inc., priority 2021, dated 2025).

Tests used:
c-Cbl = c-Cbl (Homo sapiens (Human), UniProt P22681); assay: C-Cbl LCK Ub TR-FRET assay (C-cbl Lck HTRF); format: biochemical
Experimental: (§1) 6 μL of detection mixture was added to all wells and briefly centrifuged before incubating for 20 min at room temperature. […] IC50 was generated using no LCK as the low control and DMSO as the high control.

Cbl-b = Cbl-b (Homo sapiens (Human), UniProt Q13191); assay: Cbl-b LCK Ub TR-FRET assay (Cbl-b Lck HTRF); format: biochemical; details: for IC50: Cbl-b LCK Ub TR-FRET; for fold-selectivity (Cbl-b over C-cbl): ratio C-cbl Lck HTRF IC50 / Cbl-b Lck HTRF IC50
Cbl-b, sequence (Q13191 40-426): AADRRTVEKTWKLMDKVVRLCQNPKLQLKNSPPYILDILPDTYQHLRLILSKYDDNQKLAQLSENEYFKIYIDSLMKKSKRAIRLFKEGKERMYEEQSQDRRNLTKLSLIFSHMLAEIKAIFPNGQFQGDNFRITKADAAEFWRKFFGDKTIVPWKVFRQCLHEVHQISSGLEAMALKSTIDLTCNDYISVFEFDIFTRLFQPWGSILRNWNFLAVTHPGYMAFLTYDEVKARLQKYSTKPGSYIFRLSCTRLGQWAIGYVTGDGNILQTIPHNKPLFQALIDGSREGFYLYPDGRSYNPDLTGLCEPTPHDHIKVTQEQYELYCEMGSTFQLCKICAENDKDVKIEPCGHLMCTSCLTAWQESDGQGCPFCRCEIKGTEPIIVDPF
Experimental: as §1

c-Cbl, sequence (P22681 47-435): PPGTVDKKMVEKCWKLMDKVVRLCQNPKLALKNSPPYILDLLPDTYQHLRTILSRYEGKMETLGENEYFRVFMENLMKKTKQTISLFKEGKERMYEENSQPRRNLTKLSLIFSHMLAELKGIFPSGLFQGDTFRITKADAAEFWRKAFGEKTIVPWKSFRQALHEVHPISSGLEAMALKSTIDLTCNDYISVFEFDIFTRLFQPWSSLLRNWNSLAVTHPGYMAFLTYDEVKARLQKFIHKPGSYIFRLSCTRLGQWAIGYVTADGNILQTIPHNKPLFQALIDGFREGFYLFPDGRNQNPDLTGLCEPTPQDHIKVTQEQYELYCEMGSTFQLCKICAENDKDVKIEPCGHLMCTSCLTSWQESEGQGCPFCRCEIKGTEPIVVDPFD

Row | SMILES | IC50 (c-Cbl) [µM] | IC50 (Cbl-b) [µM] | fold-selectivity (Cbl-b over C-cbl) (Cbl-b)
1 | Cn1cnnc1[C@](O)(c1cccc(N2Cc3c(cc(CNC4(C)CCC4)cc3C(F)(F)F)C2=O)c1)C1COC1 (single isomer, unassigned) [Compound 144] | 8.2 | 4.5 | 1.6x
2 | Cn1cnnc1C(F)(c1cccc(N2Cc3c(cc(CNC4(C)CCC4)cc3C(F)(F)F)C2=O)c1)C1COC1 (single isomer, unassigned) [Compound 151] | 7.9 | 3.8 | 2.1x
3 | Cn1cnnc1[C@@](O)(c1ccccc1)c1cccc(N2Cc3c(cc(CNC4(C)CCC4)cc3C(F)(F)F)C2=O)c1 (single isomer, unassigned) [Compound 155] | 10 | 10 | 2.0x
4 | Cn1cnnc1[C@](F)(c1ccccc1)c1cccc(N2Cc3c(cc(CNC4(C)CCC4)cc3C(F)(F)F)C2=O)c1 (single isomer, unassigned) [Compound 156] | 18 | 7.7 | 2.4x
5 | Cn1cnnc1[C@H](c1ccccc1)c1cccc(N2Cc3c(Cl)cc(CNC4(C)CCC4)cc3C2=O)c1 (single isomer, unassigned) [Compound 158] | 5 | 1.4 | 3.6 x
6 | Cn1cnnc1[C@@H](c1ccccc1)c1cccc(N2Cc3c(Cl)cc(CNC4(C)CCC4)cc3C2=O)c1 (single isomer, unassigned) [Compound 159] | 20 | ≥ 20 | 1.0x
7 | Cn1cnnc1[C@]1(c2cccc(N3Cc4c(cc(CNC5(C)CCC5)cc4C(F)(F)F)C3=O)c2)C[C@@H]([S@@+](C)[O-])C1 (single isomer, unassigned) [Compound 163] | 20 | ≥ 20 | 1.0x
8 | Cn1cnnc1[C@H](CC1CCOCC1)c1cccc(N2Cc3c(cc(CNC4(C)CCC4)cc3C(F)(F)F)C2=O)c1 (single isomer, unassigned) [Compound 252] | 13 | 9.1 | 1.4x
9 | CCOC1CC([C@H](c2cccc(N3Cc4c(cc(CNC5(C)CCC5)cc4C(F)(F)F)C3=O)c2)c2nncn2C)C1 (single isomer, unassigned) [Compound 264] | ≥ 20 | 5.1 | 3.9x
10 | CCOC1CC([C@@H](c2cccc(N3Cc4c(cc(CNC5(C)CCC5)cc4C(F)(F)F)C3=O)c2)c2nncn2C)C1 (single isomer, unassigned) [Compound 266] | ≥ 20 | 6.7 | 3.0x
11 | Cn1cnnc1[C@H](c1cccc(N2Cc3c(Cl)cc(CNC4(C)CCC4)cc3C2=O)c1)C1COC1 (single isomer, unassigned) [Compound 271] | 4.3 | 1.8 | 2.6x
12 | Cn1cnnc1[C@](F)(c1ccccc1)c1cccc(N2Cc3c(Cl)cc(CNC4(C)CCC4)cc3C2=O)c1 (single isomer, unassigned) [Compound 321] | 20 | ≥ 20 | 1.0x
13 | Cn1cnnc1[C@@](F)(c1ccccc1)c1cccc(N2Cc3c(Cl)cc(CNC4(C)CCC4)cc3C2=O)c1 (single isomer, unassigned) [Compound 322] | 20 | 10 | 2.0x
14 | Cc1cc([C@H](c2nncn2C)C2COC2)cc(N2Cc3c(cc(CNC4(C)CCC4)cc3C(F)(F)F)C2=O)c1 (single isomer, unassigned) [Compound 332] | 20 | 16 | 1.3x
15 | Cn1cnnc1[C@@H](c1cccc(N2Cc3c(cc(CNC4(C)CCC4)cc3C(F)(F)F)C2=O)c1)n1ccnc1 (single isomer, unassigned) [Compound 344] | 20 | ≥ 20 | 1x
16 | Cn1ccnc1[C@H](c1cccc(N2Cc3c(cc(CNC4(C)CCC4)cc3C(F)(F)F)C2=O)c1)C1COC1 (single isomer, unassigned) [Compound 353] | 20 | 9.6 | 2.1x
17 | Cn1cnnc1C(c1cccc(N2Cc3c(cc(CNC4(C)CCC4)cc3C(F)(F)F)C2=O)c1)[C@H]1C[C@@H](Cl)C1 (single isomer, unassigned) [Compound 354] | 0.58 | 0.07 | 8.3x
18 | CO[C@H]1C[C@](O)(C(c2cccc(N3Cc4c(cc(CNC5(C)CCC5)cc4C(F)(F)F)C3=O)c2)c2nncn2C)C1 (single isomer, unassigned) [Compound 367] | 12 | 7.1 | 1.7x
19 | CO[C@H]1C[C@](O)(C(c2cccc(N3Cc4c(cc(CNC5(C)CCC5)cc4C(F)(F)F)C3=O)c2)c2nncn2C)C1 (single isomer, unassigned) [Compound 368] | 6.4 | 4 | 1.6x
20 | Cn1cnnc1[C@H](c1cccc(N2Cc3c(cc(CNC4(C)CCC4)cc3C(F)(F)F)C2=O)c1)C1CC(OC(F)(F)F)C1 (single isomer, unassigned) [Compound 396] | 0.17 | 0.1 | 1.7x

Continued, values first:

Row | IC50 (c-Cbl) [µM] | IC50 (Cbl-b) [µM] | fold-selectivity (Cbl-b over C-cbl) (Cbl-b) | SMILES
21 | 6.7 | 1 | (6.7x) | Cn1cnnc1[C@H](c1cccc(N2Cc3c(cc(CNC4(C)CCC4)cc3C(F)(F)F)C2=O)c1)N1CC(F)(F)C1 (single isomer, unassigned) [Compound 56]
22 | 19 | 10 | (1.9x) | Cn1cnnc1[C@@H](c1cccc(N2Cc3c(cc(CNC4(C)CCC4)cc3C(F)(F)F)C2=O)c1)N1CC(F)(F)C1 (single isomer, unassigned) [Compound 57]
23 | 0.081 | 0.023 | 3.5x | Cn1cnnc1[C@@]1(c2cccc(N3Cc4c(cc(CNC5(C)CCC5)cc4C(F)(F)F)C3=O)c2)CCC(F)(F)C1 (single isomer, unassigned) [Compound 106]
24 | 20 | ≥ 20 | 1.0x | Cc1cnnn1[C@H](c1cccc(N2Cc3c(cc(CNC4(C)CCC4)cc3C(F)(F)F)C2=O)c1)C1COC1 (single isomer, unassigned) [Compound 136]
25 | 9.2 | 4 | 2.3x | Cn1cnnc1[C@@H](c1cccc(N2Cc3c(cc(CNC4(C)CCC4)cc3C(F)(F)F)C2=O)c1)C1(O)COC1 (single isomer, unassigned) [Compound 146]
26 | 20 | ≥ 20 | 1.0x | Cn1cnnc1[C@](O)(c1ccccc1)c1cccc(N2Cc3c(cc(CNC4(C)CCC4)cc3C(F)(F)F)C2=O)c1 (single isomer, unassigned) [Compound 154]
27 | 20 | ≥ 20 | 1.0 x | Cn1cnnc1[C@@](F)(c1ccccc1)c1cccc(N2Cc3c(cc(CNC4(C)CCC4)cc3C(F)(F)F)C2=O)c1 (single isomer, unassigned) [Compound 157]
28 | 20 | 9.1 | 2.1x | Cn1cnnc1[C@]1(c2cccc(N3Cc4c(cc(CNC5(C)CCC5)cc4C(F)(F)F)C3=O)c2)C[C@H]([S@+](C)[O-])C1 (single isomer, unassigned) [Compound 162]
29 | 10 | 3.9 | 2.3 x | Cn1cnnc1[C@H](c1cccc(N2Cc3c(cc(CNC4(C)CCC4)cc3C(F)(F)F)C2=O)c1)C1COC1 (single isomer, unassigned) [Compound 165]
30 | 0.89 | 0.88 | 1.0x | Cn1cnnc1[C@H](c1cccc(N2Cc3c(cc(CNC4(C)CCC4)cc3C(F)(F)F)C2=O)c1)C1CCCCC1 (single isomer, unassigned) [Compound 251]
31 | 4.5 | 1.3 | 3.5x | Cn1cnnc1[C@@H](c1cccc(N2Cc3c(cc(CNC4(C)CCC4)cc3C(F)(F)F)C2=O)c1)C1CC(OCC(F)F)C1 (single isomer, unassigned) [Compound 261]
32 | 20 | – | 1.0x | Cn1cnnc1[C@@H](C[C@H]1COCCO1)c1cccc(N2Cc3c(cc(CNC4(C)CCC4)cc3C(F)(F)F)C2=O)c1 (single isomer, unassigned) [Compound 295]
33 | 6 | 3.8 | 1.6x | COc1cc([C@H](c2nncn2C)C2COC2)cc(N2Cc3c(cc(CNC4(C)CCC4)cc3C(F)(F)F)C2=O)c1 (single isomer, unassigned) [Compound 338]
34 | 20 | ≥ 20 | 1x | Cn1nnnc1[C@H](c1cccc(N2Cc3c(cc(CNC4(C)CCC4)cc3C(F)(F)F)C2=O)c1)C1COC1 (single isomer, unassigned) [Compound 349]
35 | 2 | 0.15 | 13x | Cn1cnnc1C(c1cccc(N2Cc3c(cc(CNC4(C)CCC4)cc3C(F)(F)F)C2=O)c1)[C@H]1C[C@H](Cl)C1 (single isomer, unassigned) [Compound 355]
36 | 0.48 | 0.14 | 3.5x | CC[C@H](c1cccc(N2Cc3c(Cl)cc(CNC4(C)CCC4)cc3C2=O)c1)c1nncn1C (single isomer, unassigned) [Compound 358]
37 | 0.86 | 0.85 | 1.0x | CC[C@](O)(c1cccc(N2Cc3c(cc(CNC4(C)CCC4)cc3C(F)(F)F)C2=O)c1)c1nncn1C (single isomer, unassigned) [Compound 391]
